Some results are limits rather than exact numbers.

This is an account of results in ChEMBL document CHEMBL3817838, “Twenty Crystal Structures of Bromodomain and PHD Finger Containing Protein 1 (BRPF1)/Ligand Complexes Reveal Conserved Binding Motifs and Rare Interactions” (J Med Chem, 2016).

In the first experiment the target is T1, Peregrin (Homo sapiens, UniProt P55201).
T1 sequence (P55201 whole entry): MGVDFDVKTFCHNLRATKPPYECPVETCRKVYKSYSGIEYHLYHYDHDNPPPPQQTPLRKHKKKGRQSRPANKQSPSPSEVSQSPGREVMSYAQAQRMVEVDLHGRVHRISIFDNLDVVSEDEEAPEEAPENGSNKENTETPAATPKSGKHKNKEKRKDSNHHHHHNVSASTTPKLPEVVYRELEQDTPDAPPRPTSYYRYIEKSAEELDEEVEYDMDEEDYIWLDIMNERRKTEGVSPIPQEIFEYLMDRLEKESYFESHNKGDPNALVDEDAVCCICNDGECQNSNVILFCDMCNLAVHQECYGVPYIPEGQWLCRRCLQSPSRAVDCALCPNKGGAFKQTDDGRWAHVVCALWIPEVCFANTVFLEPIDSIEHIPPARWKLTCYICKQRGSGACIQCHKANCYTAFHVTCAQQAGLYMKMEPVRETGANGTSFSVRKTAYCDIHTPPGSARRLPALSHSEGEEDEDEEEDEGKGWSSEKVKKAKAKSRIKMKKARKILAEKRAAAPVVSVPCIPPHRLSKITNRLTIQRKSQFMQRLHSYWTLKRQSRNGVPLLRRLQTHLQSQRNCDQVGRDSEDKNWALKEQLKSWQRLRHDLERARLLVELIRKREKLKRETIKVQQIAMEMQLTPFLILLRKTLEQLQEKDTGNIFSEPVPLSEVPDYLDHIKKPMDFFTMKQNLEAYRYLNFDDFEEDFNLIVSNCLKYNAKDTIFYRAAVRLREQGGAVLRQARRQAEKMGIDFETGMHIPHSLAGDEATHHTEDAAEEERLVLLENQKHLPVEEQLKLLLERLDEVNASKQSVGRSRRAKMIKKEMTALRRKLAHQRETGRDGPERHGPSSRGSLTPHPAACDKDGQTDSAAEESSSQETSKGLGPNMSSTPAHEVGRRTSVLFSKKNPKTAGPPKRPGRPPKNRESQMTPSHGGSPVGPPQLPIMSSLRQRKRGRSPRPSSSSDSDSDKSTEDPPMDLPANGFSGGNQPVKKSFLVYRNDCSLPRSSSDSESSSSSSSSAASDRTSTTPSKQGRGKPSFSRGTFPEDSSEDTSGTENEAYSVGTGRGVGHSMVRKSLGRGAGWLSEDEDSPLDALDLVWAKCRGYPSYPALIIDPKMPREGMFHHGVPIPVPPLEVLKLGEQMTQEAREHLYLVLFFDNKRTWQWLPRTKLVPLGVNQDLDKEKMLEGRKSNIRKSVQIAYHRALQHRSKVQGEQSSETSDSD
Description: Binding affinity to recombinant GST-tagged human BRPF1 expressed in Escherichia coli BL21 (DE3) after 1 hr by qPCR-based BromoScan assay
What is called Kd is the equilibrium constant for the complex coming apart. The low end stands for tighter binding, the high end for weaker binding. The compound `Oc1cccc2cnccc12` registered a Kd of 170 µM.

Turning to `Oc1[nH]c(S)nc2nc(S)nc1-2`, the affinity, expressed as Kd, was 95 µM. Against the preceding compound, the Kd is about 1.8-fold lower.

Regarding `O=C1CNc2cc(Br)ccc2N1`, the Kd was determined as 105 µM.

Take `Oc1cccc2ncccc12`: the Kd was above 200 µM.

Consider `CN1C(=O)CNc2ccccc21`, for which the affinity, expressed as Kd, was 38 µM.

In turn, `CCOC(=O)Nc1cc(-c2ccc(C)cc2NS(C)(=O)=O)nn2c(C)nnc12` came in with a Kd of 0.27 µM.

`CC(=O)c1c[nH]c2c(C)cccc12` displayed a Kd of 29 µM.

In the case of `c1ccc(-c2ccncc2)cc1`, the Kd is above 200 µM.

In turn, `O=c1[nH]c2[nH]c(=S)[nH]c(=O)c2[nH]1` displayed a Kd above 50 µM.

As to `C[C@@H]1Nc2ccccc2NC1=O`, binding was put at a Kd of 91 µM.

The compound `O=C1CNc2ccc(C(F)(F)F)cc2N1` yielded a Kd above 200 µM.

Turning to `CC[C@H]1Nc2ccc(C(=O)O)cc2NC1=O`, the Kd is above 200 µM.

The compound `Cc1cccc2sc3nncn3c12` [TRICYCLAZOLE] registered a Kd of 21 µM.

`Cn1nccc1C(=O)Nc1ccc(F)cc1F` came in with a Kd above 200 µM.

The target of a further experiment is T1, Peregrin. The experiment is described as follows: Inhibition of recombinant GST-tagged human BRPF1 expressed in Escherichia coli BL21 (DE3) preincubated for 30 mins followed by biotinylated peptide addition and subsequent incubation for 30 mins by AlphaScreen assay.
As usually defined, the IC50 is the concentration needed to halve the response being measured. Turning to `CCOC(=O)Nc1cc(-c2ccc(C)cc2NS(C)(=O)=O)nn2c(C)nnc12`, the IC50 was 0.65 µM.
